# Data as given in patent publication US12527800B2, “Therapeutic agent for Parkinson's disease” (KYOWA KIRIN CO., LTD., priority 2019, dated 2026).
# Tested on: patients of Parkinson's disease experiencing motor fluctuations
# Experiment: Multivariate logistic regression analysis of patient baseline factors associated with efficacy of istradefylline (odds ratios)
# Assay type: in vivo, human
# Experimental: The cut-off value for the treatment effect used to determine the efficacy of istradefylline was defined as a reduction in OFF time (1 hour or longer), an increase in ON time without troublesome dyskinesia (1 hour or longer), and an improvement in UPDRS Part III score (3 points or more) from the clinically meaningful point of view. […] Further, with respect to the UPDRS Part II score at OFF state, an improvement of 1 point or more from the sensitivity/(1-specificity) curve (ROC curve) using the UPDRS Part II score and the CGI-I score was defined as the cut-off of the effect.
# The study of baseline factors having a favorable effect on the respective outcomes of the efficacy of istradefylline was performed by multivariate logistic regression analysis controlling for 12 baseline factors, which were expressed as the odds ratio (OR) and 95% confidence interval (CI). The efficacy outcomes included daily OFF time, ON time without troublesome dyskinesia, UPDRS Part III score at ON state, CGI-I, and UPDRS Part II score at OFF state. As covariates in the logistic regression analysis, age, sex, the presence or absence of dyskinesia history (determined based on the patient diary at baseline), mean daily OFF time, total UPDRS Part III score, mH&Y score at ON state and OFF state, concomitant drugs, duration of Parkinson's disease (duration of PD), duration of motor complications, L-DOPA dose, and levodopa-equivalent dose were used.
# In this study, with respect to the outcomes under the treatment with istradefylline, analysis of baseline factors associated with expressing a more favorable effect was performed according to the following three steps. First, interactions between the treatment with istradefylline (two doses: 20 mg and 40 mg) and 12 baseline factors were evaluated based on type III p-value by multivariate logistic regression analysis (an index for evaluating whether or not the heterogeneity (interaction) occurs in the association between the treatment and the outcome due to a certain baseline factor). As the second step, an odds ratio (OR) was estimated for the baseline factor associated with the achievement of a more favorable effect according to the dose group of istradefylline if a significant interaction is observed between the treatment with istradefylline and the baseline factor. In addition, OR was estimated for the baseline factor associated with the achievement of a more favorable effect in all patient groups if an interaction is not observed between the treatment with istradefylline and the baseline factor.
# A two-tailed p value <0.05 and an interaction p value <0.10 were determined to be statistically significant. All analyses were performed using SAS software version 9.2 or 9.3 (SAS Institute, Inc., Cary, N.C., USA).
# [1] = age ≥65 vs <65 y (ref), 20 and 40 mg/day together
# [2] = baseline UPDRS Part III score ≥20 vs <20 (ref), 20 and 40 mg/day together
# [3] = baseline m Hoehn & Yahr scale at OFF state ≥3 vs <3 (ref), 20 and 40 mg/day together
# [4] = baseline mean daily OFF time 4 to <8 h vs <4 h (ref), 20 mg/day
# [5] = baseline mean daily OFF time 4 to <8 h vs <4 h (ref), 40 mg/day
# [6] = baseline mean daily OFF time 4 to <8 h vs <4 h (ref), 20 and 40 mg/day together
# [7] = baseline mean daily OFF time ≥8 h vs <4 h (ref), 20 mg/day
# [8] = baseline mean daily OFF time ≥8 h vs <4 h (ref), 40 mg/day
# [9] = baseline mean daily OFF time ≥8 h vs <4 h (ref), 20 and 40 mg/day together
smiles,measurement,setting,value
CCn1c(=O)c2c(nc(/C=C/c3ccc(OC)c(OC)c3)n2C)n(CC)c1=O [istradefylline],"Odds ratio, increase in ON time without troublesome dyskinesia (1 hour or longer)","age ≥65 vs <65 y (ref), 20 mg/day",1.47
same,"Odds ratio, increase in ON time without troublesome dyskinesia (1 hour or longer)","age ≥65 vs <65 y (ref), 40 mg/day",2.88
same,"Odds ratio, OFF time reduction (1 hour or longer)",[1],2.65
same,"Odds ratio, improvement in CGI-I (very much, much or minimally improved)",[1],1.17
same,"Odds ratio, improvement in UPDRS Part II score (OFF)",[1],0.90
same,"Odds ratio, improvement in UPDRS Part III score (3 points or more)",[1],0.65
same,"Odds ratio, OFF time reduction (1 hour or longer)",[2],0.88
same,"Odds ratio, improvement in CGI-I (very much, much or minimally improved)",[2],1.49
same,"Odds ratio, improvement in UPDRS Part II score (OFF)",[2],0.79
same,"Odds ratio, improvement in UPDRS Part III score (3 points or more)",[2],2.79
same,"Odds ratio, increase in ON time without troublesome dyskinesia (1 hour or longer)",[2],0.97
same,"Odds ratio, improvement in UPDRS Part II score (OFF)","baseline m Hoehn & Yahr scale at OFF state ≥3 vs <3 (ref), 20 mg/day",0.99
same,"Odds ratio, improvement in UPDRS Part II score (OFF)","baseline m Hoehn & Yahr scale at OFF state ≥3 vs <3 (ref), 40 mg/day",3.50
same,"Odds ratio, OFF time reduction (1 hour or longer)",[3],0.63
same,"Odds ratio, improvement in CGI-I (very much, much or minimally improved)",[3],1.89
same,"Odds ratio, improvement in UPDRS Part III score (3 points or more)",[3],1.81
same,"Odds ratio, increase in ON time without troublesome dyskinesia (1 hour or longer)",[3],0.60
same,"Odds ratio, OFF time reduction (1 hour or longer)",[4],1.27
same,"Odds ratio, increase in ON time without troublesome dyskinesia (1 hour or longer)",[4],1.09
same,"Odds ratio, OFF time reduction (1 hour or longer)",[5],1.58
same,"Odds ratio, increase in ON time without troublesome dyskinesia (1 hour or longer)",[5],0.58
same,"Odds ratio, improvement in CGI-I (very much, much or minimally improved)",[6],1.09
same,"Odds ratio, improvement in UPDRS Part II score (OFF)",[6],1.00
same,"Odds ratio, improvement in UPDRS Part III score (3 points or more)",[6],0.85
same,"Odds ratio, OFF time reduction (1 hour or longer)",[7],1.57
same,"Odds ratio, increase in ON time without troublesome dyskinesia (1 hour or longer)",[7],1.19
same,"Odds ratio, OFF time reduction (1 hour or longer)",[8],6.68
same,"Odds ratio, increase in ON time without troublesome dyskinesia (1 hour or longer)",[8],2.38
same,"Odds ratio, improvement in CGI-I (very much, much or minimally improved)",[9],0.85
same,"Odds ratio, improvement in UPDRS Part II score (OFF)",[9],0.98
same,"Odds ratio, improvement in UPDRS Part III score (3 points or more)",[9],0.53
